Data on 13 molecules can be found in US20180012623A1, “Ionic Liquid, Lubricant, and Magnetic Recording Medium” (Dexerials Corporation, priority 2016, published 2018).

Data set [1] is described as follows: Measurement of thermal stability (TG/DTA weight reduction temperature). The data set is classed as physicochemical. The note with it: for Weight reduction temperature 5% / Weight reduction temperature 10% / Weight reduction temperature 20%: TG/DTA, 30° C. to 600° C., 10° C./min, air 200 mL/min; for Weight reduction temperatures higher than those of Z-TETRAOL by: compared with Z-TETRAOL (Comparative Example 7C); for Weight reduction temperatures higher than those of Z-DOL by: compared with perfluoropolyether Z-DOL (Comparative Example 6C).

For data set [2] the following is noted: in acetonitrile; cited from earlier work.
A short description of data set [3]: Solubility test of ionic liquids in Vertrel XF and n-hexane (visual observation). The protocol: To a predetermined amount of Vertrel XF or n-hexane, the ionic liquid was added. Ultrasonic waves were applied to the resultant mixture for 5 minutes, followed by leaving the mixture to stand for 1 day. The solubility was visually observed.
After applying ultrasonic waves to the resultant for 5 minutes, the resultant was left to stand for 1 day. Thereafter, the solubility was visually observed and evaluated based on the following evaluation criteria. […] Similarly, after applying ultrasonic waves to the resultant for 5 minutes, the resultant was left to stand for 1 day. Thereafter, the solubility was visually observed and evaluated based on the following evaluation criteria.
Note that, the solubility was visually observed, and it was judged as soluble when it was transparent. Moreover, it was judged as not soluble (insoluble) when it was opaque or insoluble components were observed.
The results are presented in Table 2. • [Evaluation Criteria]
• 0.2% by mass or greater:
Soluble with addition of 0.2 parts by mass • Less than 0.2% by mass:
Insoluble with addition of 0.2 parts by mass
<<n-Hexane>> • 0.5% by mass or greater:
Soluble with addition of 0.5 parts by mass • Less than 0.5% by mass:
Insoluble with addition of 0.5 parts by mass

Where [4] appears, read: Vertrel XF [CF3(CHF)2CF2CF3], 25° C., 0.2 parts by mass added to 100 parts by mass, ultrasonic 5 minutes, left 1 day, visual.
[5] abbreviates: n-hexane, 25° C., 0.5 parts by mass added to 100 parts by mass, ultrasonic 5 minutes, left 1 day, visual.

Like-named read-outs stand apart in the source and are kept apart here.

With “nonafluorobutanesulfonic acid-1-octadecylimidazolium [1A, reference compound]”, in data set [1], the “Weight reduction temperature 5%” value stood at 349.3 °C, the “Weight reduction temperature 10%” value stood at 375.0 °C and the “Weight reduction temperature 20%” value turned out to be 397.5 °C.

For the molecule `O=S1(=O)NS(=O)(=O)C(F)(F)C(F)(F)C1(F)F` [hexafluorocyclopropane-1,3-bis(sulfonyl)imide], the pKa in data set [2] is reported as −0.8.

For the molecule `CCCCCCCCCCCCn1ccnc1CCCCCCCCCCC.O=S(=O)(NS(=O)(=O)C(F)(F)C(F)(F)C(F)(F)C(F)(F)F)C(F)(F)C(F)(F)C(F)(F)C(F)(F)F` [Ex. 2A, bis(nonafluorobutanesulfonyl)imide-1-dodecyl-2-undecylimidazolium], the “Solubility, Fluorine-based solvent” value in data set [3] (setting [4]) is not below 0.2% by mass. Besides, the “Solubility, Fluorine-based solvent” value in data set [3] (Vertrel XF [CF3(CHF)2CF2CF3], 25° C., 0.2 parts by mass added to 100 parts by mass, ultrasonic 5 minutes, left 1 day, visual, listed as Example 2A) was not below 0.2 % by mass. Besides, the “Solubility, n-Hexane” value in data set [3] (setting [5]) was not below 0.5% by mass. In addition, the “Solubility, n-Hexane” value in data set [3] (n-hexane, 25° C., 0.5 parts by mass added to 100 parts by mass, ultrasonic 5 minutes, left 1 day, visual, listed as Example 2A) is given as not below 0.5 % by mass. Besides, in data set [1], the “Weight reduction temperature 5%” value stood at 337.7 °C, the “Weight reduction temperature 10%” value was found to be 361.6 °C, the “Weight reduction temperature 20%” value came to 383.8 °C and the “Weight reduction temperatures higher than those of Z-TETRAOL by” value was not below 100 °C. In addition, the “Weight reduction temperatures higher than those of Z-DOL by” value in data set [1] was not below 160 °C.

Regarding `F[B-](F)(F)F.[H+]` [tetrafluoroboric acid], the pKa in data set [2] is given as 1.8.

For the molecule `O=S(=O)(NS(=O)(=O)C(F)(F)C(F)(F)C(F)(F)C(F)(F)F)C(F)(F)C(F)(F)C(F)(F)C(F)(F)F` [bis(nonafluorobutanesulfonyl)imide], in data set [2], the pKa was 0.0.

In the case of “nonafluorobutanesulfonic acid-1-octadecyl-2-undecylimidazolium [Ex. 3A]”, in data set [1], the “Weight reduction temperature 5%” value is 328.3 °C, the “Weight reduction temperature 10%” value amounted to 368.1 °C, the “Weight reduction temperature 20%” value turned out to be 396.7 °C and the “Weight reduction temperatures higher than those of Z-TETRAOL by” value is not below 80 °C. For the same molecule, the “Weight reduction temperatures higher than those of Z-DOL by” value in data set [1] was not below 170 °C.

With `CCCCCCCCCCCCCCCCCC[n+]1ccn(CCCC)c1.O=S1(=O)[N-]S(=O)(=O)C(F)(F)C(F)(F)C1(F)F` [2A, hexafluorocyclopropane-1,3-bis(sulfonyl)imide-1-butyl-3-n-octadecylimidazolium, reference compound], in data set [3], the “Solubility, Fluorine-based solvent” value was “less than 0.2% by mass” and the “Solubility, n-Hexane” value is “less than 0.5% by mass”. For the same molecule, in data set [1], the “Weight reduction temperature 5%” value came out at 347.2 °C, the “Weight reduction temperature 10%” value was 367.0 °C and the “Weight reduction temperature 20%” value amounted to 387.8 °C.

For the molecule “pentadecafluorooctanoic acid octadecyl ammonium [5A, reference compound]”, in data set [1], the “Weight reduction temperature 5%” value came out at 206.9 °C, the “Weight reduction temperature 10%” value turned out to be 215.8 °C and the “Weight reduction temperature 20%” value turned out to be 223.4 °C. Besides, the “Thermal stability (in words)” value in data set [1] (summary of Table 3) was “lacking in thermal stability”.

On to “nonafluorobutanesulfonic acid-1-dodecyl-2-undecylimidazolium [Ex. 1A]”, for which, in data set [1], the “Weight reduction temperature 5%” value stood at 349.4 °C, the “Weight reduction temperature 10%” value came to 374.1 °C, the “Weight reduction temperature 20%” value was 398.9 °C and the “Weight reduction temperatures higher than those of Z-TETRAOL by” value was not below 100 °C. Further, in data set [1], the “Weight reduction temperatures higher than those of Z-DOL by” value was not below 170 °C.

Regarding `CCCCCCCCCCCCCCCCCCn1ccnc1CCCCCCCCCCCCCCCCC.O=S(=O)(O)C(F)(F)C(F)(F)C(F)(F)C(F)(F)F` [4A, nonafluorobutanesulfonic acid-1-octadecyl-2-heptadecyimidazole, reference compound], in data set [3] (setting [4]), the “Solubility, Fluorine-based solvent” value was “less than 0.2% by mass”. Besides, the “Solubility, n-Hexane” value in data set [3] (setting [5]) is listed as “less than 0.5% by mass”. Also, in data set [1], the “Weight reduction temperature 5%” value turned out to be 338.2 °C, the “Weight reduction temperature 10%” value was 365.9 °C and the “Weight reduction temperature 20%” value is 390.1 °C.

Take perfluorocyclopropane sulfoimide: the pKa in data set [2] is −0.8.

Take `CCCCCCCCCCCCCCCCCCn1ccnc1CCCCCCCCCCC.O=S(=O)(NS(=O)(=O)C(F)(F)C(F)(F)C(F)(F)C(F)(F)F)C(F)(F)C(F)(F)C(F)(F)C(F)(F)F` [Ex. 4A, bis(nonafluorobutanesulfonyl)imide-1-octadecyl-2-undecylimidazolium]: in data set [1], the “Weight reduction temperature 5%” value is 329.1 °C, the “Weight reduction temperature 10%” value amounted to 362.4 °C, the “Weight reduction temperature 20%” value is 388.4 °C and the “Weight reduction temperatures higher than those of Z-TETRAOL by” value is not below 90 °C. Further, the “Weight reduction temperatures higher than those of Z-DOL by” value in data set [1] was not below 160 °C.

“nonafluorobutanesulfonic acid-2-heptadecylimidazole [3A, reference compound]”: in data set [1], the “Weight reduction temperature 5%” value stood at 365.4 °C, the “Weight reduction temperature 10%” value came to 390.5 °C and the “Weight reduction temperature 20%” value came out at 414.3 °C.
